Consider 17 compounds from patent publication US6162815A, “RXR-agonist polycyclic aromatic compounds, pharmaceutical/cosmetic compositions comprising said compound and uses thereof” (Centre International de Recherches Dermatologiques Galderma, priority 1994, dated 2000).

Experiment [1] addresses RXR. Put plainly: RXR binding.
Experiment [2] deals with RXR. In words: RXR transactivation test. The note with it: for AC50: read-out: RXR transactivation AC 50; for RXR transactivation test (%): tested compound at 10 μM, relative to control 6-[1-(3,5,5,8,8-pentamethyl-5,6,7,8-tetrahydronaphthalen-2-yl)cyclopropyl]nicotinic acid at 10^-8 M. Type of experiment: cell-based. As for the experimental part:
We further tested compounds according to the claimed invention to ascertain their activity in assays that identify molecules as RXR-agonists. […] These references are incorporated by reference in their entirety herein.
The percentage values in the Table correspond to the percentage of activities of the tested compound at a concentration of 10 μM. This is relative to a control compound, 6-[1-(3,5,5,8,8-pentamethyl-5,6,7,8-tetrahydronaphthalen-2-yl)cyclopropyl]nicotinic acid, at a concentration of 10^-8 M.

Molecules are shown by their SMILES.

The term Ki denotes a measure of affinity in units of concentration, obtained from inhibition or displacement.

Regarding `CC(C)c1cc2c(cc1Oc1ccc(C(=O)O)cc1)C(C)(C)CCC2(C)C` [Example 10, 4-(3-isopropyl-5,5,8,8-tetramethyl-5,6,7,8-tetrahydro-2-naphthyloxy)benzoic acid], on RXR [1], the affinity corresponds to a Ki of 2.48 µM. In the experiment on RXR [2], the AC50 was found to be 0.495 µM and the “RXR transactivation test (%)” value was found to be 81%.
As to `Cc1cc2c(cc1Sc1ccc(C(=O)O)cn1)C(C)(C)CCC2(C)C` [Example 17, 6-(3,5,5,8,8-pentamethyl-5,6,7,8-tetrahydro-2-naphthylthio)nicotinic acid], the Ki at RXR [1] is 0.538 µM. Further, in the experiment with RXR [2], the AC50 was found to be 0.048 µM and the “RXR transactivation test (%)” value came out at 102%.
With `CCc1cc2c(cc1Oc1ccc(C(=O)O)cc1C)C(C)(C)CCC2(C)C` [Example 16, 3-methyl-4-(3-ethyl-5,6,7,8-tetrahydro-5,5,8,8-tetramethyl-2-naphthyloxy)benzoic acid], the “RXR transactivation test (%)” value in the experiment on RXR [2] worked out at 38%.
Regarding `CC1(C)CCC(C)(C)c2cc(Nc3ccc(C(=O)O)cc3)ccc21` [Example 5, 4-(5,6,7,8-tetrahydro-5,5,8,8-tetramethyl-2-naphthylamino)benzoic acid], the “RXR transactivation test (%)” value in the experiment on RXR [2] amounted to 21%.
Take `Cc1cc2c(cc1Sc1ccc(C(=O)O)c(Cl)c1)C(C)(C)CCC2(C)C` [Example 19, 2-chloro-4-(3,5,5,8,8-pentamethyl-5,6,7,8-tetrahydro-2-naphthylthio)benzoic acid]: in the experiment on RXR [2], the AC50 is 0.656 µM and the “RXR transactivation test (%)” value was 58%.
Turning to `Cc1cc2c(cc1Sc1ccc(C(=O)Nc3ccc(O)cc3)cc1)C(C)(C)CCC2(C)C` [Example 26, N-4-hydroxyphenyl-4-(3,5,5,8,8-pentamethyl-5,6,7,8-tetrahydro-2-naphthylthio)benzamide], the “RXR transactivation test (%)” value in the experiment with RXR [2] turned out to be 14%.
As to `Cc1cc2c(cc1Sc1ccc(C=O)cc1)C(C)(C)CCC2(C)C` [Example 24, 4-(3,5,5,8,8-pentamethyl-5,6,7,8-tetrahydro-2-naphthylthio)benzaldehyde], the “RXR transactivation test (%)” value in the experiment on RXR [2] was 17%.
Turning to `Cc1cc2c(cc1Sc1ccc(CO)cc1)C(C)(C)CCC2(C)C` [Example 23, 4-(3,5,5,8,8-pentamethyl-5,6,7,8-tetrahydro-2-naphthylthio)benzenemethanol], the “RXR transactivation test (%)” value with RXR [2] came out at 3%.
The compound `CCc1cc2c(cc1Oc1ccc(C(=O)O)cc1)C(C)(C)CCC2(C)C` [Example 9, 4-(3-ethyl-5,5,8,8-tetramethyl-5,6,7,8-tetrahydro-2-naphthyloxy)benzoic acid] yielded a Ki on RXR [1] of 2.82 µM. Further, in the experiment on RXR [2], the AC50 stood at 0.279 µM and the “RXR transactivation test (%)” value is 108%.
Take `CC1(C)CCC(C)(C)c2cc(Oc3ccc(C(=O)O)cc3)ccc21` [Example 1, 4-(5,6,7,8-tetrahydro-5,5,8,8-tetramethyl-2-naphthyloxy)benzoic acid]: the “RXR transactivation test (%)” value in the experiment on RXR [2] is given as 33%.
For `CCc1cc2c(cc1Sc1ccc(C(=O)O)cc1)C(C)(C)CCC2(C)C` [Example 20, 4-(3-ethyl-5,6,7,8-tetrahydro-5,5,8,8-tetramethyl-2-naphthylthio)benzoic acid], on RXR [1], the Ki turned out to be 3.95 µM. The “RXR transactivation test (%)” value in the experiment on RXR [2] came to 41%.
`Cc1cc2c(cc1Sc1ccc(C(=O)O)cc1)C(C)(C)CCC2(C)C` [Example 8, 4-(3,5,5,8,8-pentamethyl-5,6,7,8-tetrahydro-2-naphthylthio)benzoic acid] returned a Ki on RXR [1] of 3.74 µM. In the experiment with RXR [2], the AC50 is 0.3 µM and the “RXR transactivation test (%)” value was 118%.
`CCNC(=O)c1ccc(Sc2cc3c(cc2C)C(C)(C)CCC3(C)C)cc1` [Example 25, N-ethyl-4-(3,5,5,8,8-pentamethyl-5,6,7,8-tetrahydro-2-naphthylthio)benzamide]: the “RXR transactivation test (%)” value with RXR [2] was 15%.
On to `Cc1cc2c(cc1Oc1ccc(C(=O)O)cc1)C(C)(C)CCC2(C)C` [Example 7, 4-(3,5,5,8,8-pentamethyl-5,6,7,8-tetrahydro-2-naphthyloxy)benzoic acid], for which, in the experiment on RXR [2], the AC50 is 0.355 µM and the “RXR transactivation test (%)” value is recorded as 48%.
With `CC1(C)CCC(C)(C)c2cc(Oc3ccc(C(=O)O)cc3)c(Br)cc21` [Example 13, 4-(3-bromo-5,6,7,8-tetrahydro-5,5,8,8-tetramethyl-2-naphthyloxy)benzoic acid], affinity at RXR [1] was put at a Ki of 1.13 µM. Also, the “RXR transactivation test (%)” value in the experiment on RXR [2] is 57%.
Consider `CC1(C)CCC(C)(C)c2cc([S+]([O-])c3ccc(C(=O)O)cc3)ccc21` (centres unmarked) [Example 3, 4-(5,6,7,8-tetrahydro-5,5,8,8-tetramethyl-2-naphthylsulfinyl)benzoic acid], for which, in the experiment with RXR [2], the “RXR transactivation test (%)” value is on record as 25%.
Turning to `CC1(C)CCC(C)(C)c2cc(Sc3ccc(C(=O)O)s3)ccc21` [Example 6, 5-(5,6,7,8-tetrahydro-5,5,8,8-tetramethyl-2-naphthylthio)-2-thiophenecarboxylic acid], the “RXR transactivation test (%)” value in the experiment with RXR [2] amounted to 39%.
